The values that follow come from PubChem BioAssay (NCI).

Where “and” joins values, the source holds several entries; their conditions need not be identical. Identical values can stand only once.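 Growth conditions: 96-well plates. Treatment: test compound, 48 hours, 5 concentrations. Analysis: linear interpolation between bracketing concentrations; unreached endpoints set to highest concentration. GI50 is the concentration that inhibits growth by half. TGI denotes the concentration required for complete inhibition of growth.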 Bounds are passed on as bounds.

Holding throughout (assay): NCI-60 cell line screen, 48 h
Test [1] relates to MCF7 breast.
In test [2] the test system is PC-3 prostate.
Test [3] has as its system MDA-MB-435.

With `Nc1nccc(-c2c(-c3ccc(F)cc3)ncn2C2CCC(O)CC2)n1` (centres undefined), the values for the GI50 in test [1], in test [2] and in test [3] were 0.677 µM, 13.3 µM and 6.75 µM, respectively. Further, the TGI in test [1] is above 9.14 µM; in test [2], above 25 µM; in test [3], above 25 µM.

As to `CCCCCCCC[C@@H](O)CC(=O)N[C@@H](CC(N)=O)C(=O)N[C@@H](CCC(N)=O)C(=O)N[C@@H](CC(=O)c1cc(C)cc(O)c1C(=O)c1c(O)cccc1O)CC(C)C`, the GI50 was 0.539 µM in test [1] and 0.31 µM in test [2]. Besides, the TGI is above 100 µM in test [1] and 47.9 µM in test [2].

As for `CCCn1c(=S)sc2c1nc(C)n1c(Nc3ccccc3)nnc21`, the GI50 in test [1] is 6.31 µM; in test [2], 4.04 µM; in test [3], 3.22 µM. Also, the TGI in test [1] came to 47.3 µM; in test [2], 34.5 µM; in test [3], 24.1 µM.

Take `Cc1ccc(C(=O)N(CCCN)C(c2oc3cc(Cl)ccc3c(=O)c2Cc2ccccc2)C(C)C)cc1` (centres undefined): the GI50 in test [1], in test [2] and in test [3] was below 0.01 µM each time. Moreover, the TGI is 1.39 µM in test [1], 2.03 µM in test [2] and below 0.01 µM in test [3].

With `Cc1cc2c(cc1Cl)SC1=NN(C)S(=O)N1S2(=O)=O` (centres undefined), the GI50 in test [1], in test [2] and in test [3] was above 100 µM throughout. Further, the TGI in test [1], in test [2] and in test [3] was above 100 µM in each case.

On to `CCOC(=S)SSSC(=S)OCC`, for which the TGI in test [1], in test [2] and in test [3] was above 100 µM throughout.

Turning to `CCCC(=O)OCC1OC(n2cnc3c(=S)nc[nH]c32)C(OC(=O)CCC)C1OC(=O)CCC` (centres undefined), the GI50 in test [1] is 1.95 µM; in test [2] it was 3.72 µM; in test [3], 3.55 µM. The TGI in test [1], in test [2] and in test [3] was above 100 µM in each case.

`O=C(Nc1ccncc1)C(=O)c1cn(S(=O)(=O)c2cccc(F)c2)c2ccccc12`: the GI50 in test [1] is 0.719 µM; in test [2] it was 5.69 µM; in test [3], 0.385 µM. For the same compound, the TGI in test [1] is above 100 µM; in test [2], above 100 µM; in test [3] it was 4.02 µM.

`CCCCCCCCn1ccc2cc(NC(=O)Cn3cc(CN4CCCC4)nn3)ccc21`: in test [1], the GI50 was 1.71 µM and the TGI stood at 3.34 µM. Also, in test [3], the GI50 is 1.73 µM and the TGI is 3.24 µM.

Turning to `C[N+]1=C(/C=C/c2ccc(O)c3ncccc23)C(C)(C)c2ccccc21`, the results for the GI50 in test [1], in test [2] and in test [3] were 2.71 µM, 2.79 µM and 2.35 µM, respectively. Also, the TGI in test [1] came to 10.7 µM; in test [2], 22 µM; in test [3] it was 7.01 µM.

As to `O=C1c2cccc([N+](=O)[O-])c2C(=O)N1c1ncn[nH]1`, the TGI in test [1], in test [2] and in test [3] was above 100 µM in each case.

As to `CS(=O)(=O)CCNCc1ccc(-c2ccc3ncnc(Nc4ccc(OCc5ccccc5)cc4)c3c2)o1`, the GI50 is 2.84 µM in test [1], 7.23 µM in test [2] and 4.94 µM in test [3]. Moreover, the TGI in test [1] is above 17.7 µM; in test [2], above 23.7 µM; in test [3] it was 11.4 µM.

As for `N#CC(C#N)=C1Nc2ccccc2S1`, the GI50 in test [1] is 33.5 µM; in test [2], 40.1 µM; in test [3] it was 30.3 µM. Moreover, the TGI in test [1], in test [2] and in test [3] was above 100 µM throughout.

For the compound `Cc1ccc(-c2nc3nc(-c4ccccc4)nc(N4CCCNCC4)c3o2)cc1`, the GI50 in test [1] was 1.48 µM; in test [2], 1.69 µM; in test [3], 1.93 µM. Besides, the TGI stood at 3.5 µM in test [1], 3.17 µM in test [2] and 3.42 µM in test [3].

`O=C(O)C(=Cc1ccc(-c2ccccc2)cc1)C(=O)O`: the values for the TGI in test [1], in test [2] and in test [3] were 33.5 µM, 27.6 µM and above 64.8 µM, respectively.

Consider `Cc1cc(-c2cnn3c(NCC4CC(C)(O)C4)cc(Oc4cccnc4)nc23)ccc1C(=O)NC1CC1` (centres undefined), for which, in test [1], the GI50 was 98.9 µM and the TGI was above 100 µM.

`CC/C=C\C[C@H](F)C/C=C1/C(=O)C=C[C@@H]1C/C=C\CCCC(=O)O`: the GI50 in test [1] was 1.32 µM; in test [2], 6.09 µM; in test [3] it was 4.06 µM. Further, the results for the TGI in test [1], in test [2] and in test [3] were above 32.5 µM, 15.7 µM and 11.3 µM, respectively.

Consider `COc1cc(C(=O)CBr)c(OC)cc1C`, for which the TGI in test [1], in test [2] and in test [3] was above 100 µM in each case.

Regarding `O=C(O)c1nn(-c2ccccc2-c2n[nH]c(=O)[nH]c2=O)c(=O)[nH]c1=O`, the TGI in test [1], in test [2] and in test [3] was above 100 µM each time.

With `O=C1C(Cl)=C(NCCN2CCOCC2)C(=O)c2ncccc21`, the GI50 in test [1] was 1.28 µM; in test [2], 4.26 µM; in test [3], 0.267 µM. The TGI in test [1] is 3.4 µM and 3.31 µM; in test [2], 18.7 µM; in test [3] it was 0.372 µM and 0.686 µM.

On to `COc1ccc2c(c1)CCCN2c1c2ccccc2nc2ccccc12`, for which the GI50 in test [1] is 0.316 µM; in test [2] it was 0.354 µM. The TGI is 33.2 µM in test [1] and above 100 µM in test [2].

Turning to `COc1ccc2c(c1)C(=O)c1c-2n(CCCn2ccnc2)c(=O)c2cc([N+](=O)[O-])ccc12`, the GI50 in test [1] is below 0.01 µM; in test [2], 0.0168 µM. For the same compound, the TGI in test [1] and in test [2] was above 100 µM in each case.

`CC(=O)O[C@H]1C(=O)[C@@]2(C)C(C(OC(=O)c3ccccc3)[C@]3(O)CC(OC(=O)[C@H](OC(=O)CCC(=O)O)C(NC(=O)c4ccccc4)c4ccccc4)C(C)=C1C3(C)C)C1(OC(C)=O)COC1C[C@@H]2O` (some centres undefined): the values for the TGI in test [1] and in test [2] were above 100 µM and 0.0512 µM, respectively.

`O=C1Nc2ccccc2C1(c1ccc(O)cc1)c1ccc(O)cc1`: the GI50 is 0.378 µM in test [1], 2.71 µM in test [2] and 23 µM in test [3]. For the same compound, the results for the TGI in test [1], in test [2] and in test [3] were 27.8 µM, 75 µM and 71.3 µM, respectively.

As for `COc1cc2ncn(-c3cc(OCc4cccs4)c(C(N)=O)s3)c2cc1OC`, the results for the GI50 in test [1], in test [2] and in test [3] were 0.752 µM, 3.43 µM and 0.502 µM, respectively. The TGI in test [1] was above 12.5 µM; in test [2] it was above 25 µM; in test [3], 1.71 µM.

For `CC(C)(CO)N1CCN(C(=S)Nc2ccccc2)CC1`, the TGI in test [1], in test [2] and in test [3] was above 100 µM each time.

Turning to `O=c1cc(-c2ccccc2)oc2cc(OC/C(=N/O)c3ccccc3)ccc12`, the GI50 was 9.4 µM in test [2] and above 50 µM in test [3]. The figures for the TGI in test [2] and in test [3] were 38.4 µM and above 50 µM, respectively.

In the case of `COc1cc[nH]c1/C=C1\C(=O)Nc2ccc(F)c(C#CC3(O)CCNCC3)c21`, the GI50 in test [1] was 0.111 µM; in test [2], 0.181 µM; in test [3] it was 0.0745 µM. Also, the TGI turned out to be 1.9 µM in test [1], 1.95 µM in test [2] and 0.504 µM in test [3].

As to `N#CSC1CCCCNC1=O` (centres undefined), the TGI in test [1] was 18.3 µM; in test [2] it was 34 µM; in test [3], 34.8 µM.

On to `O=C(O)CCNC1CCCCC1`, for which the GI50 in test [1], in test [2] and in test [3] was above 100 µM throughout. For the same compound, the TGI in test [1], in test [2] and in test [3] was above 100 µM each time.

Regarding `CC/C=C\C[C@@H](O)C/C=C1/C(=O)C=C[C@H]1C/C=C\CCCC(=O)OC`, the results for the GI50 in test [1], in test [2] and in test [3] were 2.23 µM, 3.2 µM and 1.93 µM, respectively. The figures for the TGI in test [1], in test [2] and in test [3] were 13.1 µM, 10.8 µM and 5.86 µM, respectively.

For `O=C(CCc1nnc2sc(-c3ccc(Cl)cc3Cl)nn12)c1nc2ccccc2[nH]1`, the GI50 in test [1] was 0.466 µM; in test [2], 0.865 µM; in test [3], 0.382 µM. In addition, the values for the TGI in test [1], in test [2] and in test [3] were 2.45 µM, 3.62 µM and 2.22 µM, respectively.

As for `Cn1c2ccccc2c2ccc3c(c21)C(=O)c1ccccc1C3=O`, the figures for the TGI in test [2] and in test [3] were 33.2 µM and 32.2 µM, respectively.

`CCCCCCCC(=O)OCC/C=C/C1OC1C1OC(=O)/C=C\C=C\c2nc(oc2C)/C=C(/C)CCC2OC2C1OC(=O)NC(C)=O` (centres undefined): in test [1], the GI50 was 0.0368 µM and the TGI worked out at 0.481 µM. Also, in test [2], the GI50 was 0.0272 µM and the TGI amounted to 1.84 µM.
